Data as given in patent US4021566A, “2,5-Dimethyl-1-pyrrole-lower-alkanecarboxamides” (Sterling Drug Inc., priority 1975, dated 1977).
Values joined by “and” are separate entries in the source; they are usually repeats but may differ in a detail not shown here. Equal values may be shown once.

Columns and labels:
gastric secretion = experiment: Anti-secretory activity, pylorus ligation method of Shay et al.; assay type: in vivo, male albino Wistar rats; conditions: rat; for Anti-Secretory pH / Anti-Secretory % Inhibition of Free Acid: oral; for Anti-Secretory pH: pH of gastric fluid; for Anti-Secretory % Inhibition of Free Acid: vs control
Protocol: In standard biological test procedures, described generally by Shay et al., Gastroenterology 5, 43 (1945) and 26, 906 (1954) and by Selmici et al., Acta Physiol. Acad. Sci. Hung. […] Anti-secretory activity was determined in male albino Wistar rats weighing approximately 180 g. using the method described by Shay et al. which is described as follows: the rats were divided into medicated groups of at least five rats each and control groups of ten rats. The rats were medicated orally once daily for two days prior to stomach ligation and once again immediately following ligation. All drugs were administered as the free base, and control rats received only the vehicle of medication. The rats were housed individually in wire cages, food was withdrawn forty-eight hours prior to surgery, and water was withdrawn at the time of surgery. Laparotomy was performed under light ether anesthesia, the pyloric-duodenal junction was ligated, and the wound was closed with metal clips and sprayed with a protective surgical dressing. Five hours following surgery, the rats were sacrificed, the stomach was removed, and the gastric juice collected. The gastric fluid was centrifuged, and total volume, color, and volume of solids were recorded. The pH of the gastric fluid was then determined on a Beckamn pH meter, and the "free" and "total" hydrochloric acid content of each gastric sample was determined by titrating an aliquot of the gastric fluid (diluted to approximately 10 ml. with distilled water) by titrating with 0.1N sodium hydroxide against Toepfers reagent and phenolphthalein, respectively. By determining the milliequivalents of hydrochloric acid per milliliter of gastric juice and knowing the total volume of gastric juice secreted by each rat, the total acid output can be calculated. Since pH is a function of "free" acid, the activity of the test compounds can be evaluated by comparison of the mean "free" acid of medicated rats with the mean "free" acid of the controls, and the activity can thus be expressed in terms of percent inhibition of free acid.

[1] = system: reserpine-induced stomach ulceration; experiment: Anti-ulcer activity, reserpine-induced anti-ulcer test method of Selmici et al.; assay type: in vivo, male, albino, Sprague-Dawley rats; conditions: rat, oral, reserpine 5.0 mg/kg i.m., vs control
Protocol: The anti-ulcer activity of the compounds was determined using the reserpine-induced anti-ulcer test method, described by Selmici et al., which is described briefly as follows: male, albino, Sprague-Dawley rats, weighing approximately 300 g., were divided into medicated and control groups of at least five rats each, and one positive control group of five rats medicated with a known drug at the active dose was run with each experiment. The rats were medicated forty-eight, twenty-four, and one hour before receiving an injection of reserpine. All test drugs were administered orally in terms of base, and the control rats received only the vehicle of medication. The rats were housed individually in wire cages, and food was withdrawn twenty-four hours prior to injection of reserpine, while water was allowed ad libitum. One hour following the third medication, 5.0 mg. of reserpine per kilogram of body weight in a concentration of 5 mg./ml. was injected intramuscularly in each rat. Eighteen hours after injection the rats were sacrificed, their stomachs removed, opened along the greater curvature, rinsed in warm saline, and pinned to a cork board for gross observation. The stomachs were examined for the number and size of ulcerations located in the glandular portion of the stomach with the aid of a one millimeter grid ocular with a 10x dissecting microscope. The degree of ulceration was arbitrarily graded according to the number and size of the ulcers as follows:
The points were added together and divided by the number of rats in each group to give an ulcer score, and the difference in the mean scores of the medicated and control group was expressed as percent inhibition of ulceration. Alternatively, the results can be expressed as a ratio of the total number of rats with any degree of ulceration (as the numerator) to the total number of rats in the test group (as the denominator).

Compound | Anti-Secretory pH (gastric secretion; dose 50 (mg/kg)) | Anti-Secretory % Inhibition of Free Acid (gastric secretion; dose 50 (mg/kg)) | Anti-Secretory pH (gastric secretion; dose 100 (mg/kg)) | Anti-Secretory % Inhibition of Free Acid (gastric secretion; dose 100 (mg/kg)) | Anti-Secretory pH (gastric secretion; dose 200 (mg/kg)) | Anti-Secretory % Inhibition of Free Acid (gastric secretion; dose 200 (mg/kg)) | Anti-Ulcer % Inhibition ([1]; dose 50 (mg/kg)) | Anti-Secretory % Inhibition of Free Acid (gastric secretion; dose 12.5 (mg/kg)) | Anti-Secretory pH (gastric secretion; dose 12.5 (unit not in table; mg/kg)) | Anti-Secretory pH (gastric secretion; dose 25 (mg/kg)) | Anti-Secretory % Inhibition of Free Acid (gastric secretion; dose 25 (mg/kg)) | Anti-Ulcer % Inhibition ([1]; dose 25 (mg/kg)) | Anti-Ulcer % Inhibition ([1]; dose 100 (mg/kg)) | anti-secretory activity (in words) (gastric secretion; in vivo)
Cc1ccc(C)n1CC(N)=O [Example 2, 2,5-dimethyl-1-pyrroleacetamide] | 1.7 | 21% | 2.7 and 2.6 | 78% and 63% | 4.6 | 100% | 40% |  |  |  |  |  |  | 
Cc1c(C)c(C)n(CC(N)=O)c1C [Example 1, 2,3,4,5-tetramethyl-1-pyrroleacetamide] | 2.9 | 83% | 3.6 | 91% |  |  | 87% | 44% | 1.3 | 1.5 | 49% | 61% | 94% | 
NC(=O)Cn1cccc1 [Reference, pyrrole-1-acetamide, reference compound] |  |  | 1.7 | 46% |  |  |  |  |  |  |  |  |  | has anti-secretory activity
Cc1c(C)c(C)n(CCC(N)=O)c1C [Example 3, β-(2,3,4,5-tetramethyl-1-pyrrole)propionamide] |  |  | 2.4 | 60% |  |  | 66% |  |  |  |  | 36% |  | 
